US12297164B2, “Benzidine compound and application thereof” (Guangzhou IMD therapeutics Co., Ltd., priority 2019, dated 2025)
Like-named read-outs stand apart in the source and are kept apart here.

Columns and labels:
RORγ [1] = molecular target: T1, RORγ (Homo sapiens (Human), UniProt P51449); assay: AlphaScreen inhibitory activity on RORγ protein; format: biochemical; conditions: RORγ 200 nM, bSRC1-4 50 nM
Description: Experimental materials: target protein RORγ with the final concentration of 200 nM; experimental buffer (10×) MOPS (500 mM) PH 7.4, CHAPS (0.5 mM), NaF (500 mM), and
The mixture was centrifuged at room temperature at 1000 rpm for 1 minute to make the system fully mixed. After being wrapped in tin foil, the mixture was incubated in the dark for 1.5 hours.
Target sequence in this assay (P51449 whole entry): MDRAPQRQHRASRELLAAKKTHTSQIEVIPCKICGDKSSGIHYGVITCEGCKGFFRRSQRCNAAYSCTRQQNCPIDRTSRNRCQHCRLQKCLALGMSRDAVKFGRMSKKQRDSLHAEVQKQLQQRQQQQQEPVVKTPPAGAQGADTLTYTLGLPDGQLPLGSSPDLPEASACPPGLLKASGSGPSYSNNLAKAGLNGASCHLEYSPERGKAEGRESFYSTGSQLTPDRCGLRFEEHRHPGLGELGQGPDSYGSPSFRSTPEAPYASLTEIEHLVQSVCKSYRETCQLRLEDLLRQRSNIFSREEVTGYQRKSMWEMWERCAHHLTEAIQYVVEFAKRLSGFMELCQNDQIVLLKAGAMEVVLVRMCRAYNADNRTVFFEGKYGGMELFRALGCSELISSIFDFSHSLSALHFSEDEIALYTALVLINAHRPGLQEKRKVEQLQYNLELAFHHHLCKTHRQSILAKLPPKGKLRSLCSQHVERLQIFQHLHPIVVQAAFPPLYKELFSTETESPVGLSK

RORγ [2] = molecular target: T1, RORγ; assay: Luciferase double reporter gene assay (Gal4-RORγLBD) in 293T cells; format: cell-based; conditions: 24 hours of incubation
Description: The cells were cultured in a 96-well plate one day before transfection, with a cell density of 1.5×10^4 cells/well. After 24 hours of adherent growth, the cells were subjected to transient transfection by using the method of double reporter gene co-transfection with the transfection reagent of Lipo-fectamine 2000, where the transfection reagent and plasmids were diluted with Opti-MEM reagent, respectively. […] Each sample had 3 duplicate wells.
Target sequence in this assay (P51449 269-508): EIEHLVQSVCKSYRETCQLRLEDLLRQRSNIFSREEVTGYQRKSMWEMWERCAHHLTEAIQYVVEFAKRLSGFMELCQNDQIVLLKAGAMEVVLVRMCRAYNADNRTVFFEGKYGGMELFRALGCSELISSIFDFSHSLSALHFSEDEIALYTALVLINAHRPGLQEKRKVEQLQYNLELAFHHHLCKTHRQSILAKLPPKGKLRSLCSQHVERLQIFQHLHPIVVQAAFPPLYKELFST

RORγ [3] = molecular target: T1, RORγ; assay: TSA detection (thermal shift); format: binding; conditions: protein 10 μM
Description: Experimental materials: hRORγ protein, fluorescent dye Sypro Orange, 10p buffer, ultrapure water, and HSP-96 well reaction plates.
Experimental method: The diluted protein (with the final concentration of 10 μM), fluorescent dye (with the final concentration of 5×), 10× TSA buffer, and double distilled water were prepared into a mixed solution with final component volumes of 1 μL, 1 μL, 1 μL, and 2 μL, receptively. The mixed solution was transferred to an HSP-96 well reaction plate, 5 μL each well. The ligand, i.e., small molecule compound, was added, 5 μL per well, with the final concentration of 200 µM. The mixture was centrifuged at room temperature at 1000 rpm for 1 minute to make the system fully mixed. The mixture was placed on an ice bath in low light for more than 30 minutes, and after that, put into RT-PCR instrument for testing. The temperature was set from 30° C. to 80° C., and the mixture was detected every time the temperature was raised by 0.5° C. and every 5 seconds.
Target sequence in this assay (P51449 whole entry): as the sequence (P51449 whole entry) above

[4] = test system: 293T (human renal epithelial cell line transfected with adenovirus E1A gene, expressing SV40 large T antigen); assay: Cell-Titer GLO cell inhibition; format: cell-based; conditions: Homo sapiens, HEK-293T
Description: (§1) Experimental materials: fluorescence signal detection instrument: EnSpire Alpha 2390 multifunctional microplate reader (produced by Perkin Elmer Company); 384-well bottom permeable microwell plate; Cell-Titer GLO luminescent reagent; cancer cells to be tested; medium and fetal bovine serum required for cell culture.
(§2) […]. After incubation with the compound for 72 to 144 hours, Cell-Titer GLO reagent 25-T was added to each well, and the plate was shaken for 20 minutes to lyse the cells. After incubation for 10 minutes, the cells were centrifuged for 1 minute, the signal value of luminescence 384 was measured. The inhibition curve was fitted by GraphPad Prism software to obtain IC50.

[5] = test system: A549 (non-small cell lung cancer); assay: Cell-Titer GLO cell inhibition; format: cell-based; conditions: Homo sapiens
Description: as §1, §2

[6] = test system: Cos7 (African green monkey kidney cells); assay: Cell-Titer GLO cell inhibition; format: cell-based; conditions: Chlorocebus sabaeus, COS-7
Description: as §1, §2

[7] = test system: H1975 (lung cancer cells); assay: Cell-Titer GLO cell inhibition; format: cell-based; conditions: Homo sapiens, NCI-H1975
Description: as §1, §2

HFL-1 (lung fibroblasts) = assay: Cell-Titer GLO cell inhibition; format: cell-based; conditions: Homo sapiens, HFL1
Description: as §1, §2

[8] = test system: HL-7702 (liver epithelial cells); assay: Cell-Titer GLO cell inhibition; format: cell-based; conditions: Homo sapiens, L02
Description: as §1, §2

HT-29 (colon cancer) = assay: Cell-Titer GLO cell inhibition; format: cell-based; conditions: Homo sapiens
Description: as §1, §2

[9] = test system: Hela (cervical cancer cells); assay: Cell-Titer GLO cell inhibition; format: cell-based; conditions: Homo sapiens
Description: as §1, §2

[10] = test system: Hs578T (triple negative breast cancer); assay: Cell-Titer GLO cell inhibition; format: cell-based; conditions: Homo sapiens, Hs-578T
Description: as §1, §2

[11] = test system: MCF-7 (ER + breast cancer); assay: Cell-Titer GLO cell inhibition; format: cell-based; conditions: Homo sapiens, MCF7
Description: as §1, §2

[12] = test system: MDA-MB-231 (triple negative breast cancer); assay: Cell-Titer GLO cell inhibition; format: cell-based; conditions: Homo sapiens
Description: as §1, §2

MV-4-11 (acute leukemia) = assay: Cell-Titer GLO cell inhibition; format: cell-based; conditions: Homo sapiens, MV4-11
Description: as §1, §2

U2OS (osteosarcoma) = assay: Cell-Titer GLO cell inhibition; format: cell-based; conditions: Homo sapiens
Description: as §1, §2

[13] = test system: VcaP (AR-positive prostate cancer); assay: Cell-Titer GLO cell inhibition; format: cell-based; conditions: Homo sapiens, VCaP
Description: as §1, §2

[14] = test system: Du145 (AR-negative prostate cancer); assay: Cell-Titer GLO cell inhibition; format: cell-based; conditions: Homo sapiens, DU-145
Text: (§3) The inhibition curve was fitted by GraphPad Prism software to obtain IC50.

[15] = test system: PC-3 (AR-negative prostate cancer); assay: Cell-Titer GLO cell inhibition; format: cell-based
Text: as §3

RORγ [16] = molecular target: T1, RORγ; assay: ITC binding activity; conditions: read-out: Kd ITC, 25° C., pH 7.5
Target sequence in this assay (P51449 whole entry): as above

[17] = Pharmacokinetics in SD rats; conditions: for F: oral administration 10 mg/kg vs intravenous 2 mg/kg
Description: MATERIALS: Pharmacokinetic analysis was performed by Medicilon Corporation in Shanghai. Twelve Sprague and Dawley rats were provided by Super-B&K laboratory animal Corp. Ltd in Shanghai.
Experimental method: The compound was dissolved in DMSO:PEG 400:20% HP-400 (5:40:55, v:v:v) to serve as a stock solution (0.4 mg/ml, intravenous injection; 1 mg/ml, oral administration). The stock solution was administrated orally to three SD rats at a dose of 10 mg/kg, and administrated intravenously to three SD rats at a single dose of 2 mg/kg. Blood was collected from the jugular vein before oral administration and at 0.25, 0.5, 1, 2, 4, 6, 8, and 24 hours after oral administration. Blood was collected from the jugular vein before intravenous injection and at 0.083, 0.25, 0.5, 1, 2, 4, 6, 8, and 24 hours after intravenous injection. About 200 μL of blood sample was collected into a heparinized tube and immediately centrifuged at 8000 rpm for 6 minutes, and the resulting plasma was stored at −80° C. until analysis.

RORγ [18] = molecular target: T1, RORγ; assay: Specificity luciferase reporter assay in 293T cells, RORγ; conditions: read-out: IC50 RORγ, reporter gene
Target sequence in this assay (P51449 269-508): as the sequence (P51449 269-508) above
Description: The cells were cultured in a 96-well plate one day before transfection, with a cell density of 1.5×10^4 cells/well. After 24 hours of adherent growth, the cells were subjected to transient transfection by using the method of double reporter gene co-transfection with the transfection reagent of Lipo-fectamine 2000, and the transfection reagent and plasmids were diluted with Opti-MEM reagent, respectively. Gal4-RORγLBD was 25 ng per well; PG5-luc gene was 25 ng per well; and Renilla was 5 ng per well. After 24 hours of co-transfection, different concentrations of compounds were added. After 24 hours of incubation, Luciferase double reporter gene detection kit was used to detect luminescence signals. Each sample had 3 duplicate wells. The IC50 value (half inhibitory concentration) was calculated by software.

[19] = test system: 22Rv1 (AR-positive prostate cancer); assay: Cell-Titer GLO cell inhibition; format: cell-based; conditions: Homo sapiens
Text: as §3

RORα = RORα (Homo sapiens (Human), UniProt P35398); assay: Specificity luciferase reporter assay in 293T cells, RORα; format: cell-based; conditions: reporter gene
Sequence of RORα (P35398 whole entry): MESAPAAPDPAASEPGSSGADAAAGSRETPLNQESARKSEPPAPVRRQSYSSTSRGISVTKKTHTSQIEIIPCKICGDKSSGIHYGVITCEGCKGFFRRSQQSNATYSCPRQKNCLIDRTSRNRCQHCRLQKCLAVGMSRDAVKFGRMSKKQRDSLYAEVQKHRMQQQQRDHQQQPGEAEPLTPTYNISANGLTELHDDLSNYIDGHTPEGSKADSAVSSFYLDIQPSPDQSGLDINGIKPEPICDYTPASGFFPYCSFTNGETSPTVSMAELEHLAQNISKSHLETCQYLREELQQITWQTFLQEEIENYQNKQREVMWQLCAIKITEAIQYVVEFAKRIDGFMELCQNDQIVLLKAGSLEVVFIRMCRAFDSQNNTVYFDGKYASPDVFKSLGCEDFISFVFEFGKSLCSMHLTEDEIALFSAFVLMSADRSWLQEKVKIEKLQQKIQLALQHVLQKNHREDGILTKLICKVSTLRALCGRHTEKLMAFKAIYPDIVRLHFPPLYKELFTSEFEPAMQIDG
Description: The cells were cultured in a 96-well plate one day before transfection, with a cell density of 1.5×10^4 cells/well. After 24 hours of adherent growth, the cells were subjected to transient transfection by using the method of double reporter gene co-transfection with the transfection reagent of Lipo-fectamine 2000, and the transfection reagent and plasmids were diluted with Opti-MEM reagent, respectively. […] Each sample had 3 duplicate wells.

[20] = SD rats, intravenous injection, 2 mg/kg
[21] = Sprague-Dawley, rat, in vivo, iv, 2 mg/kg
[22] = Sprague-Dawley, rat, in vivo, po, 10 mg/kg

CS(=O)(=O)c1ccc(CC(=O)Nc2ccc(-c3ccc(C(O)(C(F)(F)F)C(F)(F)F)cc3F)cc2)cc1 [Example 1, N-(2′-fluoro-4′-(1,1,1,3,3,3-hexafluoro-2-hydroxypropan-2-yl)-[1,1′-biphenyl]-4-yl)-2-(4-(methylsulfonyl)phenyl)acetamide]
IC50 (RORγ [1]): 2.28 ± 0.05 µM
IC50 (RORγ [2]): 0.12 µM
ΔTm (RORγ [3]): 7.8 °C
IC50 ([4]; 293T, ~ = estimate, read-out: IC50): 15.3 µM
IC50 [5]: 22 µM
IC50 [6]: 40 µM
IC50 [7]: 24 µM
IC50 (HFL-1 (lung fibroblasts)): 30 µM
IC50 [8]: ~34.6 µM
IC50 (HT-29 (colon cancer)): 14.6 µM
IC50 [9]: 31.4 µM
IC50 [10]: 18.4 µM
IC50 [11]: 13.3 µM
IC50 [12]: ~34.7 µM
IC50 (MV-4-11 (acute leukemia)): 4.82 µM
IC50 (U2OS (osteosarcoma)): 34.5 µM
IC50 [13]: 12.8 µM
IC50 [14]: 19.1 µM
IC50 [15]: 16 µM
Kd (RORγ [16]): 0.56 µM
Cl [17, 20]: 3.2288 ± 0.2047 mL/min/kg
Vz [17, 20]: 3.54 ± 0.271 L/kg
F ([17]; SD rats): 51.91%
Tmax ([17]; SD rats, oral administration, 10 mg/kg): 5.33 ± 2.31 h
AUC(0-inf) [17, 21]: 10400 ± 664 ng·h/mL
AUC(0-t) [17, 21]: 7660 ± 329 ng·h/mL
Cmax [17, 21]: 980 ± 53.2 ng/mL
Tmax [17, 21]: 0.08 h
half-life [17, 21]: 12.7 ± 1.21 h
AUC(0-inf) [17, 22]: 24500 ± 5810 ng·h/mL
AUC(0-t) [17, 22]: 21600 ± 3950 ng·h/mL
Cmax [17, 22]: 1420 ± 161 ng/mL
half-life [17, 22]: 8.67 ± 0.05 h
IC50 (RORγ [18]): 0.12 ± 0.03 µM

CCS(=O)(=O)c1ccc(CC(=O)Nc2ccc(-c3ccc(C(O)(C(F)(F)F)C(F)(F)F)cc3F)cc2)cc1 [Example 2, 2-(4-(ethylsulfonyl)phenyl)-N-(2′-fluoro-4′-(1,1,1,3,3,3-hexafluoro-2-hydroxypropan-2-yl)-[1,1 1,1′-biphenyl]-4-yl)acetamide]
IC50 [4]: 6.22 µM
IC50 [5]: 7.08 µM
IC50 [6]: 29 µM
IC50 [7]: 16 µM
IC50 (HFL-1 (lung fibroblasts)): ~31.9 µM
IC50 [8]: ~50 µM
IC50 (HT-29 (colon cancer)): 6.07 µM
IC50 [9]: 25.1 µM
IC50 [10]: 11.9 µM
IC50 [11]: 10.5 µM
IC50 [12]: ~80 µM
IC50 (MV-4-11 (acute leukemia)): 9.48 µM
IC50 (U2OS (osteosarcoma)): 15.9 µM
IC50 [13]: 13 µM
IC50 [19]: 14.5 ± 1.1 µM
IC50 [14]: 11.5 µM
IC50 [15]: 15 µM

O=C(Cc1ccc([N+](=O)[O-])cc1)Nc1ccc(-c2ccc(C(O)(C(F)(F)F)C(F)(F)F)cc2F)cc1 [Example 3, N-(2′-fluoro-4′-(1,1,1,3,3,3-hexafluoro-2-hydroxypropan-2-yl)-[1,1′-biphenyl]-4-yl)-2-(4-nitrophenyl)acetamide]
IC50 (RORγ [1]): 4.85 ± 0.04 µM
IC50 (RORγ [2]): 1.49 µM
ΔTm (RORγ [3]): 6 °C

O=C(Cc1ccccc1[N+](=O)[O-])Nc1ccc(-c2ccc(C(O)(C(F)(F)F)C(F)(F)F)cc2F)cc1 [Example 4, N-(2′-fluoro-4′-(1,1,1,3,3,3-hexafluoro-2-hydroxypropan-2-yl)-[1,1′-biphenyl]-4-yl)-2-(2-nitrophenyl)acetamide]
IC50 (RORγ [1]): 3.46 ± 1.32 µM
IC50 (RORγ [2]): 0.19 µM
ΔTm (RORγ [3]): 4.2 °C
inhibitory rate on RORα (RORα): 37%
IC50 (RORα; NA = no inhibitory effect): 7.57 ± 0.01 µM
Kd (RORγ [16]): 0.78 µM
Cl [17, 20]: 5.4445 ± 1.543 mL/min/kg
Tmax [17, 20]: 0.19 ± 0.10 h
Vz [17, 20]: 3.42 ± 0.594 L/kg
F ([17]; SD rats): 19%
AUC(0-inf) [17, 21]: 6440 ± 1720 ng·h/mL
AUC(0-t) [17, 21]: 3330 ± 495 ng·h/mL
Cmax [17, 21]: 839 ± 38.1 ng/mL
half-life [17, 21]: 7.67 ± 2.36 h
AUC(0-t) [17, 22]: 3220 ± 781 ng·h/mL
Cmax [17, 22]: 721 ± 120 ng/mL
Tmax [17, 22]: 8 h
IC50 (RORγ [18]): 0.19 ± 0.02 µM

Nc1ccc(CC(=O)Nc2ccc(-c3ccc(C(O)(C(F)(F)F)C(F)(F)F)cc3F)cc2)cc1 [Example 5, 2-(4-aminophenyl)-N-(2′-fluoro-4′-(1,1,1,3,3,3-hexafluoro-2-hydroxypropan-2-yl)-[1,1′-biphenyl]-4-yl)acetamide]
IC50 (RORγ [1]): 2.68 µM
IC50 (RORγ [2]): 4.16 µM
ΔTm (RORγ [3]): 1.5 °C

Nc1ccccc1CC(=O)Nc1ccc(-c2ccc(C(O)(C(F)(F)F)C(F)(F)F)cc2F)cc1 [Example 6, 2-(2-aminophenyl)-N-(2′-fluoro-4′-(1,1,1,3,3,3-hexafluoro-2-hydroxypropan-2-yl)-[1,1′-biphenyl]-4-yl)acetamide]
IC50 (RORγ [1]): 5.17 µM
IC50 (RORγ [2]): 0.96 µM
ΔTm (RORγ [3]): 1.5 °C

CCCCC(=O)Nc1ccc(-c2ccc(C(O)(C(F)(F)F)C(F)(F)F)cc2F)cc1 [Example 7]
IC50 (RORγ [1]): 10.2 ± 1.61 µM
IC50 (RORγ [2]): 4.17 µM
ΔTm (RORγ [3]): 6.3 °C
